How the values were obtained:
[1] = target: T1, TIP60-KAT5 (Homo sapiens, UniProt Q92993); assay: Acetyltransferase biochemical assay (AlphaScreen), KAT5; conditions: Table 1 (TIP60-KAT5); 0.4 μM Acetyl coenzyme A, histone H4, 10 nM enzyme
T1 construct: encoding amino acid residues 2 to 461 (Uniprot Q92993-2) of human KAT5 isoform; made in house; host or cells: E. coli BL21 DE3

[2] = target: T2, MOZ-KAT6A (Homo sapiens, UniProt Q92794, A567V); assay: Acetyltransferase biochemical assay (AlphaScreen), KAT6A; conditions: Table 2 (MOZ-KAT6A); 10 μM Acetyl coenzyme A, histone H3.1, 5 nM enzyme
T2 construct: encoding amino acid residues 507 to 778 (Uniprot Q92794-1) of human KAT6A; made in house; host or cells: E. coli BL21 DE3

[3] = target: T3, HBO-KAT7 (Homo sapiens, UniProt O95251); assay: Acetyltransferase biochemical assay (AlphaScreen), KAT7; conditions: Table 3 (HBO-KAT7); 0.4 μM Acetyl coenzyme A, histone H3.1, 40 nM enzyme
T3 construct: encoding amino acid residues 325 to 611 (Uniprot 095251-1) of human KAT7; made in house; host or cells: E. coli BL21 DE3 RIL

[4] = target: T4, MOF-KAT8 (Homo sapiens, UniProt Q9H7Z6); assay: Acetyltransferase biochemical assay (AlphaScreen), KAT8; conditions: Table 4 (MOF-KAT8); 0.4 μM Acetyl coenzyme A, histone H4, 20 nM enzyme
T4 sequence (Q9H7Z6 177-447): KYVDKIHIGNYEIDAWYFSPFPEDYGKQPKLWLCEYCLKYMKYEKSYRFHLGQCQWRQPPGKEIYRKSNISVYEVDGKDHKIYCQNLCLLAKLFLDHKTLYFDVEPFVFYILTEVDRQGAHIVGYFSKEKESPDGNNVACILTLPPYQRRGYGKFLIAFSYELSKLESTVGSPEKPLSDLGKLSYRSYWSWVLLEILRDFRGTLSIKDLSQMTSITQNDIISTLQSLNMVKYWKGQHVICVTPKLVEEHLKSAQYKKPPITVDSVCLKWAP

[5] = test system: histone H3K14 acetylation (HBO1 mediated) in U2OS cells; assay: Histone H3 Lysine 14 Acetylation Biomarker Assay (96 well, U2OS); assay type: cell-based; conditions: Table 6, H3K14ac, 24 hours incubation, serum free medium
Procedure: Compounds may be tested for their ability to inhibit acetylation of the histone H3K14 marker (which is HBO1 mediated) in the following assay:
The cell line U2OS was seeded at a density of 12,000 cells per well in 96 well optical quality tissue culture plates in RPMI medium and 10% foetal bovine serum, and allowed to adhere for 24 hours under standard culture conditions (37 degree Celsius, 5% CO2). At the end of this period the cells were washed with serum free medium. Compound dilutions prepared in DMSO were added to the serum free medium, with negative control wells reserved for treatment with DMSO only and positive controls receiving a potent inhibitor compound (e.g. Example 36 in WO2016/198507) at 10 μM concentration. After incubation for 24 hours, the cells were fixed with 3.7% formaldehyde in PBS for 20 minutes at room temperature, washed with phosphate buffer saline containing 0.1% Tween 20 and blocked with Odyssey blocking buffer (LI-COR, Lincoln, Nebr.) containing 0.1% TritonX100. Anti-H3K14ac specific antibody (Cell Signalling Technologies) in Odyssey blocking buffer containing 0.1% Tween 20 was added and incubated for 14 hours at 4 degree Celsius. After washing, a secondary antibody labelled with Alexa647 dye (LifeTechnologies) and Hoechst 33342 (1 μg/mL, SigmaAldrich) were added for 1 hour incubation. Plates were washed and read on a PerkinElmer Phenix high content imaging platform. Using a Columbus image analysis pipeline, individual nuclei were located by Hoechst 33342 stain and the acetylation level was calculated from the Alexa647-related intensity in the same area. The resulting mean intensity per cell was directly converted to percent inhibition relative to controls on the same plate and the data fitted against a four-parameter logistic model to determine the 50% inhibitory concentration (IC50).

[6] = target: T2, MOZ-KAT6A; assay: Revised Acetyltransferase Biochemical Assay, KAT6A; conditions: Table 8 (MOZ-KAT6A), 1 μM Acetyl coenzyme A
[7] = target: T3, HBO-KAT7; assay: Revised Acetyltransferase Biochemical Assay, KAT7; conditions: Table 9 (HBO-KAT7), 1 μM Acetyl coenzyme A
[8] = target: T1, TIP60-KAT5; assay: Revised Acetyltransferase Biochemical Assay, KAT5; conditions: 10 nM KAT5, 1 μM AcCoA, 100 nM histone H4, 90 min
[9] = target: T4, MOF-KAT8; assay: Revised Acetyltransferase Biochemical Assay, KAT8

T1 sequence (Q92993 2-461 isoform Q92993-2): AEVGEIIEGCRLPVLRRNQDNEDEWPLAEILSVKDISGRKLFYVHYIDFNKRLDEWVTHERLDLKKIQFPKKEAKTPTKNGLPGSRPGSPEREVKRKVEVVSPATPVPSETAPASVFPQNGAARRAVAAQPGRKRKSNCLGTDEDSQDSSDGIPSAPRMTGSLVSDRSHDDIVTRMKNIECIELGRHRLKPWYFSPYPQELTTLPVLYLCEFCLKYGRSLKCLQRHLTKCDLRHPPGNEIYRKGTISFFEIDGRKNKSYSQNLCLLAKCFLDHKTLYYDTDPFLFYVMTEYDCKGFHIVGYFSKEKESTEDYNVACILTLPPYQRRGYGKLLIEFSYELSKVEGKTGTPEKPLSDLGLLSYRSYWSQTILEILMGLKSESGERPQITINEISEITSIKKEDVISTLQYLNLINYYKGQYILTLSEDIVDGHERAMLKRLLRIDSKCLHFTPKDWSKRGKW
T3 sequence (O95251 with tags, fused parts or gaps): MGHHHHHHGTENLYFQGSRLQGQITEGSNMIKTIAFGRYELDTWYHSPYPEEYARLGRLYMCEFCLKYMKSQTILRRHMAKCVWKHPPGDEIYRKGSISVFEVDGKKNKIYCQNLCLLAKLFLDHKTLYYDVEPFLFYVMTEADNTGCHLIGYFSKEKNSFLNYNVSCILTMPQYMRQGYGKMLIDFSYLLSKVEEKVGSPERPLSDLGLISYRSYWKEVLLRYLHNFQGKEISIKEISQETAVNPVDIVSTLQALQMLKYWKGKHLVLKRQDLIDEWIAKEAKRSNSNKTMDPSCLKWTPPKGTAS
T2 sequence (Q92794 507-778 A567V limits assumed): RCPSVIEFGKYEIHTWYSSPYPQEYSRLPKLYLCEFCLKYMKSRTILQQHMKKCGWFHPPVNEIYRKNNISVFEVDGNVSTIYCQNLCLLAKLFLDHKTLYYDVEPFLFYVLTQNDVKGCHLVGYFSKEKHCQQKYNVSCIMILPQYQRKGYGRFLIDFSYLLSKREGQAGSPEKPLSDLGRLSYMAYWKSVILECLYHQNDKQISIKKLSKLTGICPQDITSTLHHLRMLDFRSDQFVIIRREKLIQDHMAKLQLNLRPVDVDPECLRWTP

Compound: O=C(NCC(c1ccccc1)c1ncco1)C1=Nc2ccccc2S(=O)(=O)N1 (single isomer, unassigned) [Example 136]
- IC50 [1]: 27600 nM
- IC50 [2]: 8030 nM
- IC50 [3]: 633 nM
- IC50 [4]: > 125000 nM
- IC50 [5]: 7890 nM

Compound: [C-]#[N+]c1ccc2c(c1)S(=O)(=O)NC(C(=O)NCC(c1ccccc1)c1ncco1)=N2 (single isomer, unassigned) [Example 142]
- IC50 [1]: 4270 nM
- IC50 [2]: 21.1 nM
- IC50 [3]: 6570 nM
- IC50 [4]: 56700 nM
- IC50 [5]: 17500 nM

Compound: [C-]#[N+]c1ccc2c(c1)S(=O)(=O)NC(C(=O)NCC(c1ccccc1)c1ncco1)=N2 (single isomer, unassigned) [Example 143]
- IC50 [1]: 13800 nM
- IC50 [2]: 346 nM
- IC50 [3]: 1750 nM
- IC50 [4]: 30000 nM
- IC50 [5]: 14600 nM

Compound: C#Cc1ccc2c(c1)S(=O)(=O)NC(C(=O)NCC(c1ccccc1)c1ccccc1)=N2 [Example 38, N-(2,2-diphenylethyl)-7-ethynyl-2H-benzo[e][1,2,4]thiadiazine-3-carboxamide 1,1-dioxide]
- IC50 [1]: 1960 nM
- IC50 [2]: 532 nM
- IC50 [3]: 154 nM
- IC50 ([5]; Homo sapiens, 24 h): 1500 nM

Compound: O=C(NCC(c1ccc(F)cc1)c1ccccn1)C1=Nc2ccc(Br)cc2S(=O)(=O)N1 (stereo not shown) [Example 39, 7-bromo-N-(2-(4-fluorophenyl)-2-(pyridin-2-yl)ethyl)-2H-benzo[e][1,2,4]thiadiazine-3-carboxamide 1,1-dioxide]
- IC50 [1]: 5880 nM
- IC50 [3]: 192 nM
- IC50 ([5]; Homo sapiens, 24 h): 2490 nM
- IC50 [6]: 32 nM
- IC50 [7]: 299 nM
- IC50 [8]: 3060 nM

Compound: Cc1noc(C(CNC(=O)C2=Nc3ccc(I)cc3S(=O)(=O)N2)c2ccccc2)n1 (stereo not shown) [Example 56]
- IC50 [1]: 269 nM
- IC50 [2]: 80.9 nM
- IC50 [3]: 219 nM
- IC50 ([5]; Homo sapiens, 24 h): 650 nM
- IC50 [6]: 10 nM
- IC50 [7]: 63 nM
- IC50 [8]: 61 nM
- IC50 [9]: 1300 nM

Compound: O=C(NCC(c1ccccc1)n1cccn1)C1=Nc2ccc(Br)cc2S(=O)(=O)N1 (stereo not shown) [Example 84]
- IC50 [1]: 778 nM
- IC50 [2]: 256 nM
- IC50 [3]: 83.6 nM
- IC50 [4]: 33300 nM
- IC50 ([5]; Homo sapiens, 24 h): 765 nM
- IC50 [6]: 17 nM
- IC50 [7]: 62 nM
- IC50 [8]: 426 nM
- IC50 [9]: 77000 nM

Compound: O=C(NCCc1ccccc1OC(F)(F)F)C1=Nc2ccc(I)cc2S(=O)(=O)N1 [Example 92]
- IC50 [1]: 367 nM
- IC50 [2]: 783 nM
- IC50 [3]: 675 nM
- IC50 [4]: 21800 nM
- IC50 ([5]; Homo sapiens, 24 h): 1390 nM

Compound: O=C(NCCc1ccccc1OC(F)F)C1=Nc2ccc(Br)cc2S(=O)(=O)N1 [Example 115]
- IC50 [1]: 423 nM
- IC50 [2]: 476 nM
- IC50 [3]: 229 nM
- IC50 [4]: 31200 nM
- IC50 ([5]; Homo sapiens, 24 h): 1060 nM

Source: US20210380548A1, “Fused [1,2,4]Thiadiazine Derivatives Which Act as KAT Inhibitors of the MYST Family” (CTxT Pty Limited, priority 2017, published 2021)
